Experimental data as given in ChEMBL document CHEMBL1201862, “PubChem BioAssay data set” (2004).
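1) Cells in 96-well plates. 2) Compound, 48 h, 5 concentrations. 3) Linear interpolation between surrounding doses. 4) Unreached endpoint = highest concentration. Abbreviation: GI50, concentration required for 50% inhibition of growth.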 The source made the active and inactive calls. Rule as the data show it: active = GI50 up to about 1.1 µM and inactive = higher.

What was measured:
Assay in all cases: NCI tumour cell line growth inhibition, 48 h
[1] = tested on: CAKI-1
[2] = tested on: HOP-62
[3] = tested on: HOP-92
[4] = tested on: Hs-578T
[5] = tested on: IGROV-1
[6] = tested on: M14
[7] = tested on: MDA-MB-231
[8] = tested on: NCI-H226
[9] = tested on: NCI-H23
[10] = tested on: NCI-H522
[11] = tested on: OVCAR-4
[12] = tested on: OVCAR-5
[13] = tested on: RPMI-8226
[14] = tested on: SF-295
[15] = tested on: SF-539
[16] = tested on: SK-MEL-2
[17] = tested on: SK-MEL-5
[18] = tested on: SW-620
[19] = tested on: UACC-62
[20] = tested on: UO-31

Measured: GI50

N=C(N)N/N=C/c1c(-c2cccc([N+](=O)[O-])c2)nc2n1CCS2
inactive: [1] 31.7 µM | [2] 22.4 µM | [3] 14.9 µM | [4] 7.1 µM | [5] 15.6 µM | [6] 24.4 µM | [7] 16.7 µM | [8] 20.3 µM | [9] 25.5 µM | [10] 16.3 µM | [11] 13.9 µM | [12] 35 µM | [13] 34.9 µM | [14] 26.2 µM | [15] 20 µM | [16] 17.2 µM | [17] 14.8 µM | [18] 5.45 µM | [19] 17.9 µM | [20] 15.5 µM

COc1c2c(c(CC=C(C)C)c3oc(=O)c(-c4ccc(O)cc4)c(O)c13)OC(C)(C)C=C2 [LONCHOCARPIC ACID]
inactive: [1] 40.6 µM | [2] 23.4 µM | [3] 27.2 µM | [4] 36.2 µM | [5] 18.4 µM | [6] 25.8 µM | [7] 24.8 µM | [8] 21.5 µM | [9] 43.9 µM | [10] 23 µM | [11] 17.7 µM | [12] 42.9 µM | [13] 19.5 µM | [14] 28.2 µM | [15] 15.1 µM | [16] 19.6 µM | [17] 12.8 µM | [18] 44.1 µM | [19] 21.2 µM | [20] 27.8 µM

CCOC(=O)c1cc2cc(N(C(C)=O)C(C)=O)ccc2s1
inactive: [1] 39.4 µM | [2] 48.1 µM | [3] 27.1 µM | [4] 16.9 µM | [5] 38 µM | [6] 25.1 µM | [7] 23 µM | [8] 20.4 µM | [9] 45.3 µM | [10] 16.8 µM | [11] 31.3 µM | [12] 25.1 µM | [13] 19.6 µM | [14] 30.8 µM | [15] 27 µM | [16] 22.5 µM | [17] 20.7 µM | [18] 36.2 µM | [19] 31.6 µM | [20] 27.7 µM

COC[C@@H](/N=C/C(C)(C)C)C(C)C
inactive: [1] > 100 µM | [2] > 100 µM | [3] > 100 µM | [4] > 100 µM | [5] > 100 µM | [6] > 100 µM | [7] > 100 µM | [8] > 100 µM | [9] > 100 µM | [10] > 100 µM | [11] > 100 µM | [12] > 100 µM | [13] > 100 µM | [14] > 100 µM | [15] > 100 µM | [16] > 100 µM | [17] > 100 µM | [18] > 100 µM | [19] > 100 µM | [20] > 100 µM
